Consider 77 sequences from the supplement of paper PMC11208160.
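Also: IS621 recombinase and bridge RNA in Escherichia coli cells.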

The data set can be described thus: recombinant barcode read abundance after kanamycin selection (control-corrected) (log10(CPM+1)); higher = more efficient recombination; sequences stand for … in AGTGCAGAGAAAATCGGCCAGTTTTCTCTGCCTGCAGTCCGCATGCCGT…AGATTTATGCAGCGGACTGCCTTTCTCCCAAAGTGATAAACCGGACAGTATCATGGACCGGTTTTCCCGGTAATCCGTATTTGCAAGGTTGGTTTCACT; site = the 11-nt target. The method, boiled down:
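Pooled oligos, each joining a target to an IS621 bridge RNA target-binding loop, were cloned and co-electroporated with a donor plasmid into E. coli. Selective plates carried chloramphenicol/ampicillin/kanamycin and 0.1 mM IPTG, while chloramphenicol/ampicillin LB agar served as control, with two replicates of each. Recombination efficiency rests on averaged, control-corrected counts per million of barcodes at recombinant junctions, shown as log10(CPM+1).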
In the case of “CTCTTAACTTGGGTTCTAACCTGTTGCGG (site CTCTTAACTCC)”, the “recombinant barcode read abundance (log10)” value amounted to 0.536.
For the sequence “CTCTTAGCTTGGGTTCTAACCTGTTGCAA (site CTCTTAACTTA)”, the “recombinant barcode read abundance (log10)” value came out at 0.0112.
Regarding “CTCTTAGCTTGGGTTCTAACCTGTTGCAA (site CTCTTAGCTTT)”, the “recombinant barcode read abundance (log10)” value stood at 0.0457.
As for “CTCTTCACTTGGGTTCTAACCTGTTGCCG (site CTCTTCACTCG)”, the figure is 0.998; as for “CTCTTCACTTGGGTTCTAACCTGTTGCCG (site CTCTTCGCTAG)”, 0.0289; as for “CTGAGTTCTTGGGTTCTAACCTGTTGCCA (site CTGAGTCCTTG)”, 0.269.
For the sequence “CTGAGTTCTTGGGTTCTAACCTGTTGCCA (site CTGAGTTCTTG)”, the “recombinant barcode read abundance (log10)” value was 0.0274.
In the case of “CTGATCCCTTGGGTTCTAACCTGTTGCGG (site CTGATCCCTCC)”, the “recombinant barcode read abundance (log10)” value was found to be 1.05.
Consider “CTGATCCCTTGGGTTCTAACCTGTTGCGG (site CTGCTCCCTCC)”, for which the “recombinant barcode read abundance (log10)” value is 0.
Regarding “CTGATCCCTTGGGTTCTAACCTGTTGCGG (site CTGGTCCCTCC)”, the “recombinant barcode read abundance (log10)” value was 0.136.
As for “CTGATCCCTTGGGTTCTAACCTGTTGCGG (site CTGTTCCCTCC)”, the figure is 0.0812.
As to “CTGATTACTTGGGTTCTAACCTGTTGCCT (site CTGATAACTAG)”, the “recombinant barcode read abundance (log10)” value turned out to be 0.0337.
As for “CTGATTACTTGGGTTCTAACCTGTTGCCT (site CTGATCACTAG)”, the figure is 0.0584; as for “CTGATTACTTGGGTTCTAACCTGTTGCCT (site CTGATGACTAG)”, 0.0346.
As for “CTGATTACTTGGGTTCTAACCTGTTGCCT (site CTGATTACTAG)”, the figure is 0.21.
As for “CTGCAAGCTTGGGTTCTAACCTGTTGCCT (site CTACAAGCTAG)”, the figure is 1.29.
As for “CTGCAAGCTTGGGTTCTAACCTGTTGCCT (site CTCCAAGCTAG)”, the “recombinant barcode read abundance (log10)” value amounted to 0.218.
As for “CTGCAAGCTTGGGTTCTAACCTGTTGCCT (site CTGCAAGCTAG)”, the figure is 0.995; as for “CTGCAAGCTTGGGTTCTAACCTGTTGCCT (site CTTCAAGCTAG)”, 0.854; as for “CTGGACCCTTGGGTTCTAACCTGTTGCCG (site CTGGACCCTCG)”, 1.91.
As for “CTGGACCCTTGGGTTCTAACCTGTTGCCG (site GATTCGACTAC)”, the figure is 0.0386; as for “CTGGCAGCTTGGGTTCTAACCTGTTGCCT (site ACAAACCCTTA)”, 0.241.
As to “CTGGCAGCTTGGGTTCTAACCTGTTGCCT (site CTGGCAGCTAG)”, the “recombinant barcode read abundance (log10)” value amounted to 0.445.
As for “CTGGCGCCTTGGGTTCTAACCTGTTGCAT (site CTGGCGCCTAT)”, the figure is 0.908.
On to “CTGGCGCCTTGGGTTCTAACCTGTTGCAT (site TCTCGAGCTTC)”, for which the “recombinant barcode read abundance (log10)” value was 0.0909.
With “CTGGCTCCTTGGGTTCTAACCTGTTGCTT (site CTGGCTCCTAA)”, the “recombinant barcode read abundance (log10)” value came to 0.227.
As for “CTGGCTCCTTGGGTTCTAACCTGTTGCTT (site CTGGTTCCTAG)”, the figure is 0.0218.
As for “CTGGGGTCTTGGGTTCTAACCTGTTGCTT (site CTGGGGTCTAA)”, the figure is 2.43.
For “CTGGGGTCTTGGGTTCTAACCTGTTGCTT (site GACTAAGCTCC)”, the “recombinant barcode read abundance (log10)” value is 0.105.
As for “CTGGTGCCTTGGGTTCTAACCTGTTGCCT (site CAGGTGCCTAG)”, the figure is 0.808; as for “CTGGTGCCTTGGGTTCTAACCTGTTGCCT (site CCGGTGCCTAG)”, 0.116; as for “CTGGTGCCTTGGGTTCTAACCTGTTGCCT (site CGGGTGCCTAG)”, 0.248.
As for “CTGGTGCCTTGGGTTCTAACCTGTTGCCT (site CTGGTGCCTAG)”, the figure is 1.46; as for “CTGTAGCCTTGGGTTCTAACCTGTTGCTG (site CTGTAGCCTCA)”, 0.578.
As for “CTGTAGCCTTGGGTTCTAACCTGTTGCTG (site CTGTAGGCTTA)”, the figure is 0.0376.
For the sequence “CTGTAGGCTTGGGTTCTAACCTGTTGCTA (site CTGTAGCCTCA)”, the “recombinant barcode read abundance (log10)” value was 0.136.
On to “CTGTAGGCTTGGGTTCTAACCTGTTGCTA (site CTGTAGGCTTA)”, for which the “recombinant barcode read abundance (log10)” value amounted to 0.716.
On to “CTGTCGACTTGGGTTCTAACCTGTTGCCT (site CTATCCACTAG)”, for which the “recombinant barcode read abundance (log10)” value came out at 0.0154.
As for “CTGTCGACTTGGGTTCTAACCTGTTGCCT (site CTGTCGACTAG)”, the figure is 0.286.
As for “CTGTCTACTTGGGTTCTAACCTGTTGCCT (site CAGTCTACTAG)”, the “recombinant barcode read abundance (log10)” value came out at 0.0294.
With “CTGTCTACTTGGGTTCTAACCTGTTGCCT (site CCGTCTACTAG)”, the “recombinant barcode read abundance (log10)” value amounted to 0.197.
“CTGTCTACTTGGGTTCTAACCTGTTGCCT (site CGGTCTACTAG)”: the “recombinant barcode read abundance (log10)” value was 0.134.
As for “CTGTCTACTTGGGTTCTAACCTGTTGCCT (site CTGTCTACTAG)”, the figure is 0.0179.
For “CTTACTACTTGGGTTCTAACCTGTTGCCT (site ATCACTACTAG)”, the “recombinant barcode read abundance (log10)” value stood at 0.105.
Turning to “CTTACTACTTGGGTTCTAACCTGTTGCCT (site CTTACTACTAG)”, the “recombinant barcode read abundance (log10)” value worked out at 0.126.
For “CTTAGGACTTGGGTTCTAACCTGTTGCCT (site CTTAGGACTAG)”, the “recombinant barcode read abundance (log10)” value was determined as 0.205.
On to “CTTAGGACTTGGGTTCTAACCTGTTGCCT (site CTTAGGACTCG)”, for which the “recombinant barcode read abundance (log10)” value came to 0.0406.
Regarding “CTTAGGACTTGGGTTCTAACCTGTTGCCT (site CTTAGGACTGG)”, the “recombinant barcode read abundance (log10)” value turned out to be 0.136.
As to “CTTAGGACTTGGGTTCTAACCTGTTGCCT (site CTTAGGACTTG)”, the “recombinant barcode read abundance (log10)” value turned out to be 0.0473.
As for “CTTCAACCTTGGGTTCTAACCTGTTGCCT (site CTTCAACCTAG)”, the figure is 1.75; as for “CTTCAACCTTGGGTTCTAACCTGTTGCCT (site CTTCACCCTAG)”, 0.215; as for “CTTCAACCTTGGGTTCTAACCTGTTGCCT (site CTTCAGCCTAG)”, 0.0746.
As for “CTTCAACCTTGGGTTCTAACCTGTTGCCT (site CTTCATCCTAG)”, the figure is 0.139; as for “CTTCACACTTGGGTTCTAACCTGTTGCAT (site CTTCACACTAT)”, 1.7.
As for “CTTCACACTTGGGTTCTAACCTGTTGCAT (site CTTCACGCTAG)”, the figure is 0.316; as for “CTTCAGACTTGGGTTCTAACCTGTTGCTA (site CCTCAGACTTC)”, 0.0983.
For “CTTCAGACTTGGGTTCTAACCTGTTGCTA (site CTTCAGACTTA)”, the “recombinant barcode read abundance (log10)” value stood at 1.43.
For “CTTCATTCTTGGGTTCTAACCTGTTGCCT (site CTTCATTCTAG)”, the “recombinant barcode read abundance (log10)” value is 0.102.
As for “CTTCATTCTTGGGTTCTAACCTGTTGCCT (site TGCTGGGCTCA)”, the figure is 0.0303; as for “CTTCGAGCTTGGGTTCTAACCTGTTGCGG (site CTTCGAGCTCA)”, 0.0538.
As for “CTTCGAGCTTGGGTTCTAACCTGTTGCGG (site CTTCGAGCTCC)”, the figure is 0.98; as for “CTTCGAGCTTGGGTTCTAACCTGTTGCGG (site CTTCGAGCTCG)”, 0.027; as for “CTTCGAGCTTGGGTTCTAACCTGTTGCGG (site CTTCGAGCTCT)”, 0.658.
As for “CTTCGTACTTGGGTTCTAACCTGTTGCCA (site CTCCGTACTCG)”, the figure is 0.126; as for “CTTCGTACTTGGGTTCTAACCTGTTGCCA (site CTTCGTACTTG)”, 0.213; as for “CTTCGTCCTTGGGTTCTAACCTGTTGCCT (site CTTCGTCCTAA)”, 0.132.
“CTTCGTCCTTGGGTTCTAACCTGTTGCCT (site CTTCGTCCTAC)”: the “recombinant barcode read abundance (log10)” value stood at 0.0309.
As for “CTTCGTCCTTGGGTTCTAACCTGTTGCCT (site CTTCGTCCTAG)”, the figure is 0.804.
As for “CTTCGTCCTTGGGTTCTAACCTGTTGCCT (site CTTCGTCCTAT)”, the figure is 0.0799; as for “CTTCGTCCTTGGGTTCTAACCTGTTGCTT (site CTTCGTCCTAA)”, 0.206; as for “CTTCGTCCTTGGGTTCTAACCTGTTGCTT (site CTTCGTCCTAC)”, 0.68.
As for “CTTCGTCCTTGGGTTCTAACCTGTTGCTT (site CTTCGTCCTAG)”, the figure is 0.0453; as for “CTTCGTCCTTGGGTTCTAACCTGTTGCTT (site CTTCGTCCTAT)”, 0.541; as for “CTTGACACTTGGGTTCTAACCTGTTGCCT (site CTAGACACTAG)”, 1.2.
With “CTTGACACTTGGGTTCTAACCTGTTGCCT (site CTCGACACTAG)”, the “recombinant barcode read abundance (log10)” value was found to be 0.401.
As for “CTTGACACTTGGGTTCTAACCTGTTGCCT (site CTGGACACTAG)”, the figure is 0.236; as for “CTTGACACTTGGGTTCTAACCTGTTGCCT (site CTTGACACTAG)”, 2.07.
